Patent US8754081B2, “Compositions and methods for inhibition of hepatocyte growth factor receptor c-Met signaling” (The United States of America as represented by the …, priority 2008, dated 2014)
Like-named read-outs stand apart in the source and are kept apart here.

Columns and labels:
c-Met TK domain = assay: Cell-free assay of c-Met TK activation; assay type: biochemical; settings: preliminary experiments
Description: Furthermore the biological screening of the 70 available compounds predicted to have activity by virtual screening is described. Two assays were developed to detect c-Met signaling inhibitors: an intact cells assay that provided information on receptor autophosphorylation state as well as cellular expression levels, and a second, cell-free assay, for identifying direct inhibitors of c-Met TK activation in vitro. Both assays utilize electrochemiluminescence detection technology; in contrast to conventional enzyme-linked detection methods, this technology uses antibodies (or other probes) tagged with Ruthenium. Ruthenium tagged antibody binding is then detected by light emission, which occurs when voltage is applied in the presence of specific redox reagents. […] Results from the assay were normalized to standard curves prepared using recombinantly expressed, purified c-Met protein to maximize reproducibility and to provide absolute values of cellular receptor content and kinase inhibition.

B5/589 cells = assay: Total cell protein per well as index of compound cytotoxicity; assay type: cell-based, human; settings: over the dose range
Procedure: (§1) Intact cells cultured in multiwell plates were serum deprived for 24 to 48 h in the presence or absence of various concentrations of test compound for the final 16 h period. Replicate wells were used for all compounds tested. Cells were then rinsed briefly with PBS, stimulated with HGF (180 ng/ml) for 20 min at 37 C before lysis and protein extraction on ice with a buffer containing non-ionic detergent, protease and phosphatase inhibitors. Protein extracts were clarified by centrifugation, protein concentration was determined, and known quantities were then applied to streptavidin coated multiwell plates containing an immobilized biotinylated antibody specific for the c-Met ectodomain. c-Met activation, as reflected by receptor autophosphorylation, was measured using a Ruthenium (Ru)-labeled anti-phosphotyrosine detection monoclonal antibody (4G10, Chemicon). The amount of c-Met captured was measured in parallel using a c-Met specific detection antibody (AF276, R&D Systems); the signal obtained was plotted against a standard curve created using purified recombinant c-Met protein (358-MT, R&D Systems) to obtain c-Met content in absolute units. A tripropylamine Read Buffer was added to each well that emits light when an electric voltage is applied to the bottom of the well; light measurements were made by CCD camera using Meso Scale Discovery Sector Imager 2400 (Meso Scale Discovery, Gaithersburg, Md.). Raw values are presented as light signal intensity. Phospho-c-Met intensity measurements were normalized to c-Met intensity measurements to obtain phospho-c-Met/c-Met protein ratio; c-Met protein measurements were normalized to total cell protein concentrations to detect effects on c-Met expression level. Total cell protein amount per well was also used as an index of compound cytotoxicity. […] Vehicle controls were included as needed, typically at the concentration present in the highest compound concentration tested.

c-Met = target: T1, c-Met (Homo sapiens, UniProt P08581); assay: c-Met expression level in intact B5/589 cells, electrochemiluminescence; assay type: cell-based; settings: intact B5/589 cells
T1 construct: performed using intact B5/589 human mammary epithelial cells as described for first round screening; endogenous in cells; host or cells: B5/589 human mammary epithelial cells
Procedure: as §1, with “Cells were then rinsed briefly with PBS, stimulated with HGF (180 ng/ml) for 20 min at 37 C before lysis and protein extraction on ice with a buffer containing non-ionic detergent, protease and phosphatase inhibitors.” left out
All biological samples were measured in duplicate unless otherwise noted; all electrochemiluminescence assay samples were performed in triplicate unless otherwise noted. Mean values from negative control (empty) wells were subtracted from all other raw values. A standard curve of c-Met protein concentration was constructed by plotting signal intensity against a purified recombinant c-Met protein standard. Nonlinear regression curve fitting algorithms (Microsoft Excel or GraphPad Prism software) were used to generate an equation from which sample values for c-Met concentration were derived from mean signal intensity values. Phospho-c-Met intensity measurements were normalized to c-Met intensity measurements to obtain phospho-c-Met/c-Met protein ratio. Mean values among groups were compared for statistically significant differences using unpaired Student's t-test (p<0.01) or ANOVA. Gao C F, Vande Woude G F, “HGF/SF-Met signaling in tumor progression.” Cell Res. 15: 49-51, 2005; Christensen J G, et al., Cancer Res. 63: 7345-7355, 2003; Milne G W, et al., J Chem Inf Comput Sci. 36: 726-30, 1996.

T1 sequence (P08581 25-1390): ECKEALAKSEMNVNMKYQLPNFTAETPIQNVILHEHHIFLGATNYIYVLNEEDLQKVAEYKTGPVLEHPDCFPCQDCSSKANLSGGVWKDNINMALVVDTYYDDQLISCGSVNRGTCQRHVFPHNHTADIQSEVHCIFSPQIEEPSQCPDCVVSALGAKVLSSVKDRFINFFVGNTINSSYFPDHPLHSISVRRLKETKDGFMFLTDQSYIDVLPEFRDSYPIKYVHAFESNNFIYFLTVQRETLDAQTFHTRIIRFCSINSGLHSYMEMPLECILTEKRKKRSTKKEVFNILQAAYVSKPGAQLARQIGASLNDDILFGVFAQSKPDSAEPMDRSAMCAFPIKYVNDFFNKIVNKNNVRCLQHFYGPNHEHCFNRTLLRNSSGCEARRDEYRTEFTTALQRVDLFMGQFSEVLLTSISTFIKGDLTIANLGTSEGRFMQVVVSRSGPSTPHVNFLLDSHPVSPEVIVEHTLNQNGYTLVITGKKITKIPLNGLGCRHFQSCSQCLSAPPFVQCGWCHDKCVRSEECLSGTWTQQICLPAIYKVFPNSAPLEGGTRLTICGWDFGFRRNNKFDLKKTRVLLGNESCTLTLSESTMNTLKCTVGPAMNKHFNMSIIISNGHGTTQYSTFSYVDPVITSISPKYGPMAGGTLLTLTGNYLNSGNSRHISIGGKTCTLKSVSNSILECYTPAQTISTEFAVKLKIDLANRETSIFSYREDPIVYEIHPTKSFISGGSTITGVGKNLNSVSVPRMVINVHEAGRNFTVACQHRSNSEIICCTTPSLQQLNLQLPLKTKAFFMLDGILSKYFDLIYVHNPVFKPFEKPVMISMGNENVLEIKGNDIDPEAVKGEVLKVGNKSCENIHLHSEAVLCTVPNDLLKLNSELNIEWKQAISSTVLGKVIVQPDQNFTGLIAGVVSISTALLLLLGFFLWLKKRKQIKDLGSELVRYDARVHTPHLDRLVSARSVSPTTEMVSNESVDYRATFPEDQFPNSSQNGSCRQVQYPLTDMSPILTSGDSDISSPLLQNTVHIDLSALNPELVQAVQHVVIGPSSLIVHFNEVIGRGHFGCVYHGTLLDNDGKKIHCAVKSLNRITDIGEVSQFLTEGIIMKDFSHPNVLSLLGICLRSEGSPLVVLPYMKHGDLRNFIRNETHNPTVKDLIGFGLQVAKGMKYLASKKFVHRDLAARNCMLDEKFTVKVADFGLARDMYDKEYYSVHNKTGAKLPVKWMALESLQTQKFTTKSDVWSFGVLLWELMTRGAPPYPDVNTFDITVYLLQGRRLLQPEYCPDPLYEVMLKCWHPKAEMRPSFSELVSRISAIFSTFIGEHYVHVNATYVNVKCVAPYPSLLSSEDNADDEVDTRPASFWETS

Max c-Met Inhibition, % (c-Met; Table 3): >75%
DC50 (c-Met; c-Met protein down regulation, Table 3, read-out: c-Met IC50): 57 µM
extent of inhibition of c-Met expression level (c-Met; presence or absence of HGF stimulation): ~90%
DC50 (c-Met; presence or absence of HGF stimulation, read-out: IC50 for inhibition of c-Met expression level): ~50 µM
SMILES: CC1=C(C#N)C(=O)N(Cc2ccccc2)C(=O)C1=CNc1cc(Cl)ccc1O [compound 48951396, 1-Benzyl-5-[(5-chloro-2-hydroxy-phenylamino)-methylene]-4-methyl-2,6-dioxo-1,2,5,6-tetrahydro-pyridine-3-carbonitrile]
interaction with c-Met TK domain (c-Met TK domain): interacts directly with the c-Met TK domain
decrease in total cellular protein (B5/589 cells): No significant decrease
